Measured values as given in ChEMBL document CHEMBL1129160, “Non thiazolidinedione antihyperglycaemic agents. 2: -Carbon substituted -phenylpropanoic acids1” (Bioorg Med Chem Lett, 1996).

Biological target: T1, Peroxisome proliferator-activated receptor gamma (Homo sapiens, UniProt P37231)
T1 sequence (P37231 whole entry): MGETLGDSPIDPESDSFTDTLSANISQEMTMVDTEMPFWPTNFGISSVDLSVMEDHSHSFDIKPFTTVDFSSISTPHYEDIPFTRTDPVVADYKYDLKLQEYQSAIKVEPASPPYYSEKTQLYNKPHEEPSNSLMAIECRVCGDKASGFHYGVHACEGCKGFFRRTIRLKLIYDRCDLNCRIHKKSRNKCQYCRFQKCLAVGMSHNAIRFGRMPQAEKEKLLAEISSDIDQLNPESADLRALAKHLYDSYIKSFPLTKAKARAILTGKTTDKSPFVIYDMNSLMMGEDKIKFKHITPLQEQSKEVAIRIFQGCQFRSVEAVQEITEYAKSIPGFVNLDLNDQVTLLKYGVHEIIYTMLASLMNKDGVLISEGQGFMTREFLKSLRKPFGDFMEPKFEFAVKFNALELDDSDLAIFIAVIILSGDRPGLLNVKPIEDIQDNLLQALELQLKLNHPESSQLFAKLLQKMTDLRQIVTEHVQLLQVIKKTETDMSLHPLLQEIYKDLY

Molecule `CN(CCOc1ccc(CC(CCCc2ccccc2)C(=O)O)cc1)c1nc2ccccc2o1` (centres undefined) has a Ki of 30 nM.

Biological target: T1, Peroxisome proliferator-activated receptor gamma
Assay: Inhibition of [125I]SB 236636 binding to human PPAR gamma receptor

Molecule `CC(Cc1ccc(OCCN(C)c2nc3ccccc3o2)cc1)C(=O)O` (centres undefined) has a Ki of 1500 nM.

Test system: Mus musculus
Assay: In vivo anti-hyperglycaemic activity in mice.
Assay type: functional

Point of comparison: `CN(CCOc1ccc(CC(C(=O)O)c2ccccc2)cc1)c1nc2ccccc2o1` (centres undefined), ED25 30 µM/kg. Against it:
- CCCC(Cc1ccc(OCCN(C)c2nc3ccccc3o2)cc1)C(=O)O (centres undefined) — lower, 10 µM/kg
- CC(Cc1ccc(OCCN(C)c2nc3ccccc3o2)cc1)C(=O)O (centres undefined) — higher, 1000 µM/kg
- COC(=O)C(Cc1ccc(OCCN(C)c2nc3ccccc3o2)cc1)C(C)=O (centres undefined) — higher, 300 µM/kg
- CN(CCOc1ccc(CC(C/C=C/c2ccccc2)C(=O)O)cc1)c1nc2ccccc2o1 (centres undefined) — the same, 30 µM/kg
- C=CCC(Cc1ccc(OCCN(C)c2nc3ccccc3o2)cc1)C(=O)O (centres undefined) — the same, 30 µM/kg
- COC(=O)C(CCc1ccccc1)Cc1ccc(OCCN(C)c2nc3ccccc3o2)cc1 (centres undefined) — higher, 100 µM/kg
- COC(=O)C(Cc1ccc(OCCN(C)c2nc3ccccc3o2)cc1)C(=O)OC — lower, 10 µM/kg
- CN(CCOc1ccc(CC(C#N)C(=O)O)cc1)c1nc2ccccc2o1 (centres undefined) — lower, 10 µM/kg
- CCOC(Cc1ccc(OCCN(C)c2nc3ccccc3o2)cc1)C(=O)O (centres undefined) — lower, 0.1 µM/kg
- CN(CCOc1ccc(CC(CCOc2ccccc2)C(=O)O)cc1)c1nc2ccccc2o1 (centres undefined) — the same, 30 µM/kg
- Cc1c(C)c2c(c(C)c1O)CCC(C)(COc1ccc(CC3SC(=O)NC3=O)cc1)O2 (centres undefined) [TROGLITAZONE] — higher, 400 µM/kg
- CCC(Cc1ccc(OCCN(C)c2nc3ccccc3o2)cc1)C(=O)O (centres undefined) — the same, 30 µM/kg
- CN(CCOc1ccc(CC(CCCCc2ccccc2)C(=O)O)cc1)c1nc2ccccc2o1 (centres undefined) — higher, 100 µM/kg
- CC(C)CCC(Cc1ccc(OCCN(C)c2nc3ccccc3o2)cc1)C(=O)O (centres undefined) — higher, 100 µM/kg
- CN(CCOc1ccc(CC(CCCc2ccccc2)C(=O)O)cc1)c1nc2ccccc2o1 (centres undefined) — lower, 3 µM/kg
- CN(CCOc1ccc(CC2SC(=O)NC2=O)cc1)c1nc2ccccc2o1 (centres undefined) [BRL-48482] — lower, 3 µM/kg
- CN(CCOc1ccc(CC(CCCCCc2ccccc2)C(=O)O)cc1)c1nc2ccccc2o1 (centres undefined) — lower, 3 µM/kg
- COCC(Cc1ccc(OCCN(C)c2nc3ccccc3o2)cc1)C(=O)O (centres undefined) — the same, 30 µM/kg
- COC(=O)C(Cc1ccccc1)Cc1ccc(OCCN(C)c2nc3ccccc3o2)cc1 (centres undefined) — higher, 300 µM/kg
- CCCCCCC(Cc1ccc(OCCN(C)c2nc3ccccc3o2)cc1)C(=O)O (centres undefined) — lower, 10 µM/kg

With `CCOC(=O)C(Cc1ccc(OCCN(C)c2nc3ccccc3o2)cc1)C(=O)c1ccccc1` (centres undefined) the ED25 was >1000 µM/kg.
